# Read-outs that look alike come from different tables or passages of the source.
# Legend:
# [1] = DPPH radical scavenging bioassay; type: biochemical; details: for radical scavenging activity, DPPH assay: compound 1 mM in MeOH, read after 0.5 h at 517 nm; for IC50: concentration decreasing absorbance by 50%
# Source text: (§1) The antioxidant activity was estimated by ABTS and DPPH bioassays, according to the reported literature method. More details are in the Supplementary Materials.
# (§2) Recently, OSe compounds were thoroughly used as redox modulators to control many complicated diseases (e.g., cancer and neurodegenerative diseases). The DPPH and ABTS bioassays were extensively used as rapid tools for estimating the antioxidant potency of OSe compounds [50, 51]. Ascorbic acid was used as a standard control, and the antioxidant potency was measured by the ability of the compounds to decolorize the characteristic colors of the ABTS^. and DPPH^. radicals by following the colorimetric decline in absorbance at 734 and 517 nm, respectively (Figure 2).
# Figure 2 Evaluation of the antioxidant properties of the OSe compounds employing the ABTS and DPPH assays. All measurements are mean ± SD. In the DPPH assay: absorbance was read after 0.5 h of mixing […] of DPPH with […] of OSe compounds (1 mM, MeOH) at 517 nm. In the ABTS assay: […] of each OSe compound (1 mM, phosphate-buffered methanol) was mixed with the ABTS solution (60 mM), and absorbance was monitored at 734 nm. […]
# 1.1.1. The antioxidant activity
# The hydrogen atom or electron donation ability of the corresponding compounds was measured by estimating the bleaching of the purple color of a methanolic solution of DPPH [29]. This spectrophotometric assay uses stable DPPH. reagent. The sample was prepared by adding […] of the OSe compounds (1 mM in methanol) to […] DPPH in methanol. After 30 min of incubation in the dark, the absorbance was read against a blank at 517 nm. Ascorbic acid (vitamin C) and ebselen were used as standard antioxi-dants (positive control). A blank sample was run without DPPH. A negative control sam-ple was run using methanol instead of the sample. The radical scavenging activity was calculated using the following equation:
# Inhibition%= (Ablank-Asample)/(Ablank)*100. (1)
# Escherichia coli = experiment: Agar diffusion assay, E. coli; type: cell-based; parameters: E. coli A% (activity index): concentration or dose not given beside the values; details: for E. coli A% (activity index): zone of test compound / zone of standard (ampicillin) x 100; for zone of inhibition at 20 µM: Escherichia coli, read-out: E. coli IZD (mm)
# MCF-7 cells = experiment: cells; type: cell-based, human; details: for IC50: MTT, 24 h incubation, MCF-7 cells, read-out: MCF7 IC50; for MCF7 TI (IC50 WI-38 / IC50 MCF-7): therapeutic index, ratio of WI-38 IC50 to MCF-7 IC50
# Description: (§3) Cells were obtained from the ATCC Company (VACSERA), Cairo, Egypt. MTT assay were performed according to the literature method. More details are in the Supporting Information.
# (§4) Recently, OSe compounds gained much attention as possible drug candidates due to their various pharmacological properties. […] Therefore, the anticancer attributes of the newly prepared OSe compounds were estimated using the MTT assay against MCF-7 and HepG2 and compared with their respective cytotoxicity in WI-38 primary cells. The anthracycline drug doxorubicin was used as the standard. […] Moreover, the therapeutic index (TI) was also calculated (according to Equation (1)), which is considered a measure of the selectivity and safety of the synthesized compounds. (1) TI=IC50 for the normal WI38 cells/IC50 for the cancer cells […]
# (§5) 1.1. The biological assays
# (§6) 1.1.1. The anticancer activity
# (§7) The breast adenocarcinoma (MCF-7), Hepatocellular carcinoma (HEPG-2), and nor-mal fibroblast (WI-38) cells were obtained from ATCC via Holding company for biological products and vaccines (VACSERA), Cairo, Egypt.
# (§8) DMSO, and fetal bovine serum was obtained from Sigma Aldrich. Dulbecco’s modified Eagle’s medium was used as the culture medium for the cells, and the cytotoxicity was evaluated using the reported MTT assay. Doxorubicin was used as the positive reference, and the IC50 values were obtained from the corresponding dose-response curve.
# (§9) This colorimetric assay is based on converting the yellow tetrazolium bromide (MTT) to a purple formazan derivative by mitochondrial succinate dehydrogenase in viable cells. […]
# (§10) added were 100 units/ml penicillin and 100µg/ml streptomycin at 37 C in a 5% Co2 incu-bator. The cell lines were seeded in a 96-well plate at a density of 1.0x10^4 cells/well. at 37 C for 48 h under 5% Co2. After incubation, the cells were treated with different concentra-tions of compounds and incubated for 24 h. After 24 h of drug treatment, 20 µl of MTT solution at 5mg/ml was added and incubated for 4 h. Finally, dimethyl sulfoxide (DMSO) in the volume of 100 µl is added to each well to dissolve the purple formazan formed. The colorimetric assay is measured and recorded at an absorbance of 570 nm using a plate […]
# (§11) The percentage of the relative cell viability was calculated as (A570 of treated samples/A570 of the untreated sample) X 100. […]
# WI-38 cells = experiment: cells; type: cell-based, human; details: MTT, 24 h incubation, normal WI-38 cells, read-out: WI38 IC50
# Description: as §3, §4, §5, §6, §7, §8, §9, §10, §11
# [2] = ABTS radical scavenging bioassay; type: biochemical; details: for radical scavenging activity, ABTS assay: compound 1 mM in phosphate-buffered methanol, 734 nm; for IC50: concentration decreasing absorbance by 50%
# Source text: as §1, §2
# Figure 2 Evaluation of the antioxidant properties of the OSe compounds employing the ABTS and DPPH assays. All measurements are mean ± SD. In the DPPH assay: absorbance was read after 0.5 h of mixing […] of DPPH with […] of OSe compounds (1 mM, MeOH) at 517 nm. In the ABTS assay: […] of each OSe compound (1 mM, phosphate-buffered methanol) was mixed with the ABTS solution (60 mM), and absorbance was monitored at 734 nm.
# The antioxidant activity of the investigated compounds was assessed using 2,2’-az-ino-bis(3-ethylbenzothiazoline-6-sulphonic acid (ABTS) method. The radical cation derived from ABTS was prepared by the reaction of 60 mM ABTS solution with 0.3 M manganese dioxide solution in 0.1M phosphate buffer, pH 7. Then, the mixture was shaken, centrifuged, filtered, and the absorbance (Acontrol) of the resulting green-blue solu-tion (ABTS radical solution) was measured at wavelength 734 nm. Then, […] of 1 mg/ml test compound in phosphate-buffered methanol was added. The absorbance (Atest) was measured. The reduction in color intensity was expressed as % inhibition. The % inhibi-tion for each compound is calculated from the following equation
# Inhibition% = (Acontrol-Asample)/(Acontrol)*100
# Ascorbic acid (vitamin C) was used as a standard antioxidant (positive control). A blank sample was run without ABTS and using MeOH/phosphate buffer (1:1) instead of the sample. A negative control sample was run with MeOH/phosphate buffer (1:1) instead
# [3] = inhibition zone diameter, six-mm disks soaked with 20 μM of compound
Molecule,"radical scavenging activity, DPPH assay [1] [%]",IC50 [1] [µM],E. coli IZD (mm) (Escherichia coli; [3]),E. coli A% (activity index) (Escherichia coli) [%],IC50 (MCF-7 cells) [µM],MCF7 TI (IC50 WI-38 / IC50 MCF-7) (MCF-7 cells),IC50 (WI-38 cells) [µM],"radical scavenging activity, ABTS assay [2] [%]",IC50 [2] [µM],zone of inhibition at 20 µM (Escherichia coli; [3]) [mm],"IC50 (MCF-7 cells; Homo sapiens, MCF7) [µM]",IC50 (WI-38 cells; Homo sapiens) [µM]
2-((4-(2-(3-hydroxynaphthalen-1(4H)-ylidene)hydrazinyl)phenyl)selanyl)-N-phenylacetamide [Compound 9],93,20.64 ± 0.14,20,87,3.27 ± 0.2,12,39.3 ± 2.5,88,28.87 ± 0.2,–,–,–
"Nc1ccc([Se]CC(=O)Nc2ccccc2)cc1 [Compound 4, 2-((4-aminophenyl)selanyl)-N-phenylacetamide]",80,–,–,61,–,4.6,–,78,–,14,11.3 ± 0.8,52.3 ± 3
"CCOc1ccc(NC(=O)C[Se]c2ccc(N)cc2)cc1 [Compound 5, 2-((4-aminophenyl)selanyl)-N-(4-ethoxyphenyl)acetamide]",71,–,–,44,–,4,–,53,–,10,25.5 ± 2,> 100
"Nc1ccc([Se]CC(=O)N[C@@H](Cc2c[nH]c3ccccc23)C(=O)O)cc1 [Compound 6, (2-((4-aminophenyl)selanyl)acetyl)tryptophan]",91,24.03 ± 0.23,–,74,–,5,–,85,31.92 ± 0.29,17,5.69 ± 0.4,28.4 ± 2.2
"O=C(O)CCC(=O)Nc1ccc([Se]CC(=O)Nc2ccccc2)cc1 [Compound 11, 4-oxo-4-((4-((2-oxo-2-(phenylamino)ethyl)selanyl)phenyl)amino)butanoic acid]",76,–,–,52,–,3.2,–,74,–,12,21.2 ± 1.8,67.3 ± 3.9
"O=C(C[Se]c1ccc(N2C(=O)CCC2=O)cc1)Nc1ccccc1 [Compound 14, 2-((4-(2,5-dioxopyrrolidin-1-yl)phenyl)selanyl)-N-phenylacetamide]",77,–,–,57,–,3.6,–,81,–,13,17.1 ± 1.4,62 ± 3.6
"C[Se]c1ccc(NC(=O)C=CC(=O)O)cc1 [Compound 15, 4-((4-(methylselanyl)phenyl)amino)-4-oxobut-2-enoic acid]",87,–,–,65,–,2.8,–,84,–,15,7.03 ± 0.6,19.8 ± 1.5
"C[Se]c1ccc(NC(=O)CCC(=O)O)cc1 [Compound 16, 4-((4-(methylselanyl)phenyl)amino)-4-oxobutanoic acid]",67,–,–,–,–,0.7,–,71,–,10,29.5 ± 2.2,22.5 ± 1.9

# — paper PMC9312238, “Novel Organoselenium Redox Modulators with Potential Anticancer, Antimicrobial, and Antioxidant Activities” (Antioxidants, 2022)
